What all share (type): physicochemical
Series [1] is described as follows: Stability 1% in excipient mixtures, 2 weeks 50° C. From the text:
(§1) Both solid forms of the Compound of Formula (I) are also stable in mixtures with excipients.

Series [2] is described as follows: Competitive slurry experiments and equilibration studies in solvents. The conditions noted are these: for Outcome of competitive slurry experiment with Form A: 25° C.
Series [3] can be described thus: Solid form transformation / decomposition upon heating. The procedure: DSC thermograms were recorded with a TA Discovery DSC instrument using heat flux compensation (TA Instruments, USA). The TA Discovery instrument was calibrated for temperature and enthalpy according to the manufacturer's instructions using certified reference substances like indium. About 2 mg of sample material was sealed in a standard pin-holed aluminum pan and heated in the DSC from 0° C. to 300° C., at a heating rate of 10° C./min. Dry nitrogen gas, at a flow rate of 50 ml/min was used to purge the DSC equipment during the measurement.
Thermogravimetric analysis was performed using a TA Discovery TGA instrument (TA Instruments, USA). About 2-10 mg of sample material was sealed in a standard aluminum pan with pierced lid and heated in the TGA from 30° C. to 250° C., at a heating rate of 10° C./min. Dry N2 gas, at a flow rate of 20 ml/min was used to purge the TGA equipment during the measurement.

Series [4] in a line: Hygroscopicity / water uptake. The method, then: The maximum water uptake of Form A is 0.6% at 95% relative humidity at 25° C. Form A is stable at water activity of aw=0.7 at 25° C.
Form A is an anhydrous crystalline form with a melting onset of about 208° C. and melting enthalpy of about 111-119 J/g.

Series [5] is described as follows: Stability in 0.1% solutions or suspensions, 1 week 80° C. (pH stability study). Details: key to CL color: A: No change of color; B: Slight discoloration; C: Medium discoloration; D: Strong discoloration; —: Test not performed; key to Suspension or clear solution after stress test: ↓: Suspension; *: Clear solution after stress test. The following applies: for CL color / DP[%] degradation products (HPLC area-%): 0.1% solution or suspension; for CL color / DP[%] degradation products (HPLC area-%) / Suspension or clear solution after stress test: 1 week 80° C.; for Suspension or clear solution after stress test: 0.1%.

A short description of series [6]: Slurry experiments of Form A and Hydrate HA in media with different water activities. The conditions noted are these: 40° C. The method, then: Form A is stable at water activities of aw=0.7 and below, whereas the hydrate is stable at aw=0.9 and above. At 40° C. Form A is stable at water activities of aw=0.8 and below, whereas the hydrate is stable at aw>0.95.

The nature of series [7]: Solid state bulk stability, 1 week 80° C. tight container and 80° C./75% RH. The following applies: for Bulk (XRPD) solid form after stress / DP[%] degradation products, Bulk (HPLC): Solid state.
The nature of series [8]: Stability in 0.1% solutions or suspensions, 1 week 80° C. (pH stability study). Details: key to CL color: A: No change of color; B: Slight discoloration; C: Medium discoloration; D: Strong discoloration; —: Test not performed; key to Suspension or clear solution after stress test: ↓: Suspension; *: Clear solution after stress test. The following applies: for Suspension or clear solution after stress test: 0.1%. The procedure:
In a pH stability study, 0.1% suspension/solutions of the compound of Formula (I) in buffer solutions of various pHs were exposed to 80° C. for one week. The compound of Formula (I) degraded the most in pH 1 buffer, about 5%, whereas at high pH degradation was less than 1% after 1 week at 80° C.

Series [9] is described as follows: Xenon light stress (1200 kLuxh). The following applies: for Bulk (XRPD) solid form after stress / CL color / DP[%] degradation products, Bulk (HPLC): Xenon light (1200 kLuxh); for CL color: bulk. Details: key to CL color: A: No change of color; B: Slight discoloration; C: Medium discoloration; D: Strong discoloration; —: Test not performed.
From the text: as §1

Where [10] appears, read: 80° C. and 80° C. and 75% RH for one week.
The mark [11] stands for this setting: 1 week 80° C., tight container, listed as Modification A (NX-27).
Where [12] appears, read: listed as Modification A (NX-27).

On to `O=C1CC2(CCN(C(=O)NCc3ccc(F)cc3)CC2)Nc2ccc(F)cc21` [Form A, 6′-fluoro-N-(4-fluorobenzyl)-4′-oxo-3′,4′-dihydro-1′H-spiro[piperidine-4,2′-quinoline]-1-carboxamide], for which the “DP[%] degradation products” value in [1] (1% in mixture 1 (Dry Blend), 2 weeks 50° C., tight container, listed as Modification A (NX-27)) was found to be 0.4%; in series [1] (1% in mixture 1 (Dry Blend), 2 weeks 50° C./75% RH, listed as Modification A (NX-27)) it was 0.4%; in series [1] (1% in mixture 2 (Wet granulation), 2 weeks 50° C., tight container, listed as Modification A (NX-27)) it was 0.4%; in series [1] (1% in mixture 2 (Wet granulation), 2 weeks 50° C./75% RH, listed as Modification A (NX-27)), 0.4%; in series [1] (1% in mixture 3 (Roller compaction), 2 weeks 50° C., tight container, listed as Modification A (NX-27)), 0.4%; in series [1] (1% in mixture 3 (Roller compaction), 2 weeks 50° C./75% RH, listed as Modification A (NX-27)), 0.4%. The “Crystal structure after slurrying (equilibration) for prolonged time” value in series [2] (various solvents) is listed as “preserves its crystal structure”. This compound also came in with a Thermal decomposition temperature in series [3] (TGA) of 240 °C. Further, in series [4], the Hygroscopicity result was “slightly hygroscopic”. In series [4] (95% relative humidity at 25° C.), this compound registered a Maximum water uptake of 0.6%. Further, the CL color result in [5] (Acetonitrile), in series [5] (Dioxane), in series [5] (Ethanol), in series [5] (MEK), in series [5] (NMP) and in [5] (Water) was “A” throughout. Further, the CL color entry in series [5] (pH 1.0, 0.1N HCl) is given as “A”; in series [5] (pH 3.0, citrate buffer) it was “A”; in series [5] (pH 6.8, phosphate buffer), “A”; in [5] (pH 9.0, borate buffer), “A”; in series [8] (0.1% solution or suspension, pH 4.7, acetate buffer), “A”; in [9] (setting [12]), “B”. Also, the “DP[%] degradation products (HPLC area-%)” value in series [5] (Acetonitrile) turned out to be 1.2%; in [5] (Dioxane) it was 56.8%; in [5] (Ethanol), 16.6%; in series [5] (MEK), 7.6%; in series [5] (Water), 1.2%; in [5] (pH 1.0, 0.1N HCl), 5.6%. Further, the “DP[%] degradation products (HPLC area-%)” value in series [5] (pH 3.0, citrate buffer) was determined as 1.5%; in series [5] (pH 4.7, acetate buffer), 1.4%; in series [5] (pH 6.8, phosphate buffer) it was 1.2%; in [5] (pH 9.0, borate buffer), 1.1%; in series [8] (0.1% solution or suspension, NMP) it was 14.3%. The “Suspension or clear solution after stress test” value is recorded as “*” in series [5] (Acetonitrile); “*” in [5] (Dioxane); “*” in series [5] (Ethanol); “*” in [5] (MEK); “*” in series [5] (NMP); “↓” in [5] (pH 4.7, acetate buffer). The “Suspension or clear solution after stress test” value is listed as “↓” in series [8] (Water); “↓” in series [8] (pH 1.0, 0.1N HCl); “↓” in [8] (pH 3.0, citrate buffer); “↓” in [8] (pH 6.8, phosphate buffer); “↓” in [8] (pH 9.0, borate buffer). Moreover, in series [6], the “Water activity (aw) at which the form is stable” value is ≤ 0.8. Also, the “Chemical stability in the bulk” value in [7] (setting [10]) is on record as “chemically stable”. Besides, the “Bulk (XRPD) solid form after stress” value was “No change” in series [7] (setting [11]); “No change” in series [7] (1 week 80° C./75% RH, listed as Modification A (NX-27)); “No change” in series [9]. For the same compound, the “DP[%] degradation products, Bulk (HPLC)” value amounted to 0.6% in series [7] (setting [11]), 0.7% in series [7] (1 week 80° C./75% RH) and 1.2% in series [9] (setting [12]). In addition, the “Physical stability in bulk” value in series [7] (bulk) was “physically stable”. Further, the “Increase in degradation products upon light stress” value in series [9] (listed as Modification A) is listed as 0.6%.

`O=C1CC2(CCN(C(=O)NCc3ccc(F)cc3)CC2)Nc2ccc(F)cc21` [Form C, 6′-fluoro-N-(4-fluorobenzyl)-4′-oxo-3′,4′-dihydro-1′H-spiro[piperidine-4,2′-quinoline]-1-carboxamide]: in series [2], the “Outcome of competitive slurry experiment with Form A” value was “conversion of Form C into Form A”. Further, in series [2] (based on competitive slurry experiments), the “Transition temperature Form C / Form A (enantiotropic relationship)” value is “below 25 °C”. For the same compound, the “Temperature of transformation into Form A upon heating” value in series [3] is “about 150 °C”.

In the case of `O=C1CC2(CCN(C(=O)NCc3ccc(F)cc3)CC2)Nc2ccc(F)cc21` [Form D, 6′-fluoro-N-(4-fluorobenzyl)-4′-oxo-3′,4′-dihydro-1′H-spiro[piperidine-4,2′-quinoline]-1-carboxamide], the “Outcome of competitive slurry experiment with Form A” value in series [2] was “will convert into Form A”. In addition, the “Temperature of transformation into Form A upon heating” value in [3] was “above 190 °C”.

On to `O=C1CC2(CCN(C(=O)NCc3ccc(F)cc3)CC2)Nc2ccc(F)cc21` [amorphous, 6′-fluoro-N-(4-fluorobenzyl)-4′-oxo-3′,4′-dihydro-1′H-spiro[piperidine-4,2′-quinoline]-1-carboxamide], for which the “DP[%] degradation products” value is recorded as 0.8% in [1] (1% in mixture 1 (Dry Blend), 2 weeks 50° C., tight container); 0.8% in series [1] (1% in mixture 1 (Dry Blend), 2 weeks 50° C./75% RH); 0.8% in series [1] (1% in mixture 2 (Wet granulation), 2 weeks 50° C., tight container); 0.8% in series [1] (1% in mixture 2 (Wet granulation), 2 weeks 50° C./75% RH); 0.8% in series [1] (1% in mixture 3 (Roller compaction), 2 weeks 50° C., tight container); 0.8% in [1] (1% in mixture 3 (Roller compaction), 2 weeks 50° C./75% RH). Moreover, the “Chemical stability in the bulk” value in series [7] (setting [10]) is “chemically stable”. The “Solid form change of bulk under stress” value in series [7] (setting [10]) is given as “crystallized into the crystalline Modification A”. Further, the “Bulk (XRPD) solid form after stress” value in series [7] (1 week 80° C., tight container) is reported as “NX Mod A”; in series [7] (1 week 80° C./75% RH), “NX Mod A”; in series [9], “No change”. The “DP[%] degradation products, Bulk (HPLC)” value in series [7] (1 week 80° C., tight container) is listed as 0.7%; in [7] (1 week 80° C./75% RH), 0.7%; in [9] it was 0.7%. Moreover, the CL color result in series [9] is listed as “A”. Moreover, in series [9] (listed as amorphous form), the “Increase in degradation products upon light stress” value is “no degradation was observed”.

As for `O=C1CC2(CCN(C(=O)NCc3ccc(F)cc3)CC2)Nc2ccc(F)cc21` [compound of Formula (I), 6′-fluoro-N-(4-fluorobenzyl)-4′-oxo-3′,4′-dihydro-1′H-spiro[piperidine-4,2′-quinoline]-1-carboxamide], the Degradation entry in series [5] (0.1% suspension/solution at high pH, 1 week at 80° C.) is reported as “less than 1%”; in series [5] (0.1% suspension/solution in pH 1 buffer, 80° C., one week), “about 5%”.

The record behind these values is patent publication US20250353847A1, “CRYSTALLINE FORMS OF AN AKRIC3 DEPENDENT KARS INHIBITOR” (Novartis AG, priority 2022, published 2025).
